Measurements: US7635685B2 (priority 2003, dated 2009)
≈ marks a conversion by molar mass, not a printed value. Where “and” joins values, the source holds several entries; their conditions need not be identical. Identical values can stand only once. Like-named read-outs stand apart in the source and are kept apart here.

Columns and labels:
[1] = molecular target: 27-mer 16S A site RNA construct (AS-wt); assay type: binding
[2] = test system: B. anthracis (Sterne strain); assay: microbe, parasite or virus in culture; assay type: cell-based, Bacillus anthracis
[3] = test system: Staphylococcus epidermidis; assay: microbe, parasite or virus in culture; assay type: cell-based
[4] = test system: E. coli XL1(pET9d); assay: microbe, parasite or virus in culture; assay type: cell-based
[5] = test system: Bacillus subtilis; assay: microbe, parasite or virus in culture; assay type: cell-based
[6] = test system: Pseudomonas aeruginosa (ATCC 27853); assay: microbe, parasite or virus in culture; assay type: cell-based
[7] = test system: adenylyl(3′-5′)-adenosine (ApA); details: cited from earlier work
[8] = test system: E. coli strains; assay: microbe, parasite or virus in culture; assay type: cell-based
[9] = test system: Salmonella virchow (SV49); assay: microbe, parasite or virus in culture; assay type: cell-based
[10] = in vivo; cited from earlier work

NCC1O[C@H](OC2C(O)[C@H](OC3C(O)[C@H](N)CC(N)[C@H]3O[C@H]3OC(CN)[C@@H](O)C(O)C3N)O[C@@H]2CO[C@@H]2OC(CO)[C@@H](O)C(O)C2O)C(N)C(O)[C@@H]1O (stereo partly shown) [Compound XII]
Kd ([1]; read-out: Kd): 1100 ± 200 nM | MIC ([2]; Bacillus anthracis, 18 h): 8 µg/mL (≈ 10.3 µM)

neomycin B
MIC [3]: 0.3 to 0.4 µg/mL | MIC [4]: 50 to 60 µg/mL | MIC [5]: 0.8 to 0.9 µg/mL | MIC [6]: 55 to 60 µg/mL | first-order rate constants lower than those reported for natural ribozymes [7]: over 1000 fold | hydrolysis of ApA faster than 1,3-propanediamine [7]: 3 fold | Kd ([1]; read-out: binding constant Kd to 16S A site RNA): 300 nM | MIC [8]: 4 to 5.5 µg/mL and 8 to 10 µg/mL | MIC [2]: 0.25 µg/mL | MIC [9]: 200 to 250 µg/mL | LD50 [10]: 24 mg/kg

NC[C@H]1O[C@H](O[C@H]2[C@H](O)[C@@H](O[C@H]3O[C@H](CO)[C@@H](O)[C@H](N)[C@H]3O)[C@H](N)C[C@@H]2N)[C@H](O)[C@@H](O)[C@@H]1O [KAN]
MIC [4]: 260 to 270 µg/mL | MIC [6]: 400 to 500 µg/mL | MIC [9]: 500 to 570 µg/mL

NC[C@H]1O[C@H](O[C@H]2[C@H](O[C@@H]3O[C@H](CO)[C@@H](O)[C@H]3O)[C@@H](O)[C@H](N)C[C@@H]2N)[C@H](N)[C@@H](O)[C@@H]1O [ribostamycin]
LD50 [10]: 260 mg/kg

NC[C@@H]1O[C@H](O[C@H]2[C@@H](O)[C@H](O[C@@H]3[C@@H](O)[C@H](N)C[C@H](N)[C@H]3O[C@H]3O[C@H](CO)[C@@H](O)[C@H](O)[C@H]3N)O[C@@H]2CO)[C@H](N)[C@@H](O)[C@@H]1O [paromomycin]
LD50 [10]: 160 mg/kg

NCC1O[C@H](O[C@@H]2C(N)C[C@@H](N)C(O)[C@H]2O[C@@H]2O[C@H](CS[C@@H]3O[C@H](CO)[C@H](O)C3O)[C@H](O[C@H]3O[C@@H](CN)[C@@H](O)C(O)C3N)C2O)C(N)[C@@H](O)[C@@H]1O (stereo partly shown) [Compound XI]
MIC ([3]; Staphylococcus epidermidis, ATCC12228): 1.5 to 3 µg/mL (≈ 1.97 to 3.93 µM) | MIC ([4]; Escherichia coli): > 200 µg/mL | MIC ([5]; Bacillus subtilis, ATCC6633): 1 to 2.5 µg/mL (≈ 1.31 to 3.28 µM) | MIC ([6]; Pseudomonas aeruginosa, ATCC27853): 200 to 400 µg/mL (≈ 262 to 524 µM) | Kd ([1]; read-out: Kd): 1000 ± 200 nM | MIC ([8]; Escherichia coli): 30 to 40 µg/mL (≈ 39.3 to 52.4 µM) | MIC ([8]; Escherichia coli, ATCC25922): 25 to 40 µg/mL (≈ 32.8 to 52.4 µM) | MIC ([2]; Bacillus anthracis, 18 h): 2 µg/mL (≈ 2.62 µM) | MIC ([9]; Salmonella enterica): > 250 µg/mL

NC[C@@H]1O[C@H](O[C@H]2[C@@H](O)[C@H](O[C@@H]3[C@@H](O)[C@H](N)C[C@H](N)[C@H]3O[C@H]3O[C@H](CO)[C@@H](O)C[C@H]3N)O[C@@H]2CO)[C@H](N)[C@@H](O)[C@@H]1O[C@H]1O[C@H](CO)[C@@H](O)[C@H](O)[C@@H]1O [lividomycin]
LD50 [10]: 280 mg/kg
